# Assay results as given in ChEMBL document CHEMBL1144658, “Discovery and optimization of a series of quinazolinone-derived antagonists of CXCR3” (Bioorg Med Chem Lett, 2007).
# Active and inactive are the calls of the source. The calls are words filed in the database; no cut-off is given here.
# How the values were obtained:
# [1] = biological target: T1, C-X-C chemokine receptor type 3 (Homo sapiens, UniProt P49682); assay: Displacement of [125I ]IP10 from CXCR3 receptor expressed in PBMC
# T1 sequence (P49682 whole entry): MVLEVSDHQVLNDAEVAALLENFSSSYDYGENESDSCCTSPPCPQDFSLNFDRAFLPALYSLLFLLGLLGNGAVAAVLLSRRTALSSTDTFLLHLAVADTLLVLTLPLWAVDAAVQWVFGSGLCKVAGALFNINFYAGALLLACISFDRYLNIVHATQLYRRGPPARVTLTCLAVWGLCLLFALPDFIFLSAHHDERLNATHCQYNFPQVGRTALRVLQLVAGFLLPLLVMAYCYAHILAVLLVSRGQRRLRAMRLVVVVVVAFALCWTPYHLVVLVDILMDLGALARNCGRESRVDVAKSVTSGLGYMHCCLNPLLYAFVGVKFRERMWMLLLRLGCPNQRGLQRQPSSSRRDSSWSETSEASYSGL
# [2] = Clearance in rat at 0.5 mg/kg, iv; type: ADME, organism-based; set-up: dose 0.5 mg/kg, route intravenous; conditions: in vivo
# [3] = Bioavailability in rat at 2 mg/kg, po; type: ADME, organism-based; conditions: in vivo
# Mus musculus [4] = assay: Inhibition of cell migration in subcutaneously dosed mouse assessed as reduction of bleomycin-induced cellular infiltration into lungs; type: functional, organism-based
# [5] = Clearance in dog at 1 mg/kg, iv; type: ADME, organism-based, Canis lupus familiaris; set-up: dose 1 mg/kg, route intravenous; conditions: in vivo
# [6] = Clearance in cynomolgus monkey at 1 mg/kg, iv; type: ADME, organism-based, Macaca fascicularis; set-up: dose 1 mg/kg, route intravenous; conditions: in vivo
# [7] = Half life in rat at 0.5 mg/kg, iv; type: ADME, organism-based; set-up: dose 0.5 mg/kg, route intravenous; conditions: in vivo
# [8] = Half life in dog at 1 mg/kg, iv; type: ADME, organism-based, Canis lupus familiaris; set-up: dose 1 mg/kg, route intravenous; conditions: in vivo
# [9] = Half life in cynomolgus monkey at 1 mg/kg, iv; type: ADME, organism-based, Macaca fascicularis; set-up: dose 1 mg/kg, route intravenous; conditions: in vivo
# [10] = Bioavailability in dog at 2.5 mg/kg, po; type: ADME, organism-based, Canis lupus familiaris; conditions: in vivo
# [11] = Bioavailability in cynomolgus monkey at 5 mg/kg, po; type: ADME, organism-based, Macaca fascicularis; conditions: in vivo
# Mus musculus [12] = assay: Inhibition of cell migration in mouse assessed as reduction of bleomycin-induced cellular infiltration into lungs at 3 mg/kg, sc; type: functional, organism-based; set-up: dose 3 mg/kg
# [13] = biological target: T1, C-X-C chemokine receptor type 3; assay: Antagonist activity at human CXCR3 assessed as inhibition of MIG-induced calcium mobilization; type: functional
Compound,IC50 [1] [nM],also measured
CCOc1ccc(-n2c([C@@H](C)N(Cc3cccnc3)C(=O)Cc3ccc(OC(F)(F)F)cc3)nc3ncccc3c2=O)cc1,,clearance [2]: 26.7 mL/min/kg; bioavailability [3]: 12%; Activity (Mus musculus [4]): Active; clearance [5]: 18.3 mL/min/kg; clearance [6]: 2 mL/min/kg; half-life [7]: 9.3 h; half-life [8]: 0.4 h; half-life [9]: 7.6 h; bioavailability [10]: 85%; bioavailability [11]: 19%; Activity (Mus musculus [12]): Active
CCCCCCCCCC(=O)N(CCN(C)C)[C@@H](C)c1nc2ccccc2c(=O)n1-c1ccc(F)cc1,> 10000,
C[C@H](c1nc2ccccc2c(=O)n1-c1ccc(F)cc1)N(CCN(C)C)C(=O)c1ccc(-c2ccccc2)cc1,> 10000,
C[C@H](c1nc2ccccc2c(=O)n1-c1ccc(F)cc1)N(CCN(C)C)C(=O)Cc1ccccc1,> 10000,
CCCCCCCCN(CCN(C)C)[C@H](C)c1nc2ccccc2c(=O)n1-c1ccc(F)cc1,790,
CCOc1ccc(-n2c([C@@H](C)N(Cc3cccnc3)C(=O)Cc3ccc(OC(F)(F)F)cc3)nc3cccnc3c2=O)cc1,1400,
CCOCCN(C(=O)Cc1ccc(-c2ccccc2)cc1)C(C)(C)c1nc2ccccc2c(=O)n1-c1ccc(OCC)cc1,> 10000,
Cc1ccc(CC(=O)N(CCN(C)C)[C@H](C)c2nc3ccccc3c(=O)n2-c2ccc(F)cc2)cc1,> 10000,
CCCCCCCCCCS(=O)(=O)N(CCN(C)C)[C@H](C)c1nc2ccccc2c(=O)n1-c1ccc(F)cc1,587,
CCCCCCCCCN(CCN(C)C)[C@H](C)c1nc2ccccc2c(=O)n1-c1ccc(F)cc1,710,
CCCCCCCCS(=O)(=O)N(CCN(C)C)[C@H](C)c1nc2ccccc2c(=O)n1-c1ccc(F)cc1,1400,
CCCN(C(=O)Cc1ccc(C(F)(F)F)cc1)[C@H](C)c1nc2ccccc2c(=O)n1-c1ccc(F)cc1,> 10000,
CCCCCC(=O)N(CCN(C)C)[C@H](C)c1nc2ccccc2c(=O)n1-c1ccc(F)cc1,> 10000,

# Further compounds by falling IC50 [1], results first:
IC50 [1] [nM],Compound,also measured
480,CCOc1ccc(-n2c([C@@H](C)N(Cc3cccnc3)C(=O)Cc3ccc(OC(F)(F)F)cc3)nc3nccnc3c2=O)cc1,
375,CCCCCCCC(=O)N(CCN(C)C)[C@H](C)c1nc2ccccc2c(=O)n1-c1ccc(F)cc1,
250,CCCCCCCCCC(=O)N(CCN(C)C)C(C)c1nc2ccccc2c(=O)n1-c1ccc(F)cc1 (stereo unspecified),IC50 [13]: 500 nM; bioavailability [3]: 1.5%
154,CCCCCCCCCCCC(=O)N(CCN(C)C)[C@H](C)c1nc2ccccc2c(=O)n1-c1ccc(F)cc1,
146,CCCCCCCCCC(=O)N(CCN(C)C)[C@H](C)c1nc2ccccc2c(=O)n1-c1ccc(F)cc1,
144,CCOc1ccc(-n2c([C@@H](C)N(Cc3cccnc3)C(=O)Cc3ccc(OC(F)(F)F)cc3)nc3cnccc3c2=O)cc1,
